Results reported in patent US9737510B2, “Indazole compounds and a process for the preparation thereof” (Council of Scientific & Industrial Research, priority 2013, dated 2017).
In brackets after ≈: the same amount, converted by molar mass.

Legend:
[1] = target: T1, LTA4H (Homo sapiens, UniProt P09960); test: LTA4H inhibition; format: biochemical; details: read-out: IC50 against LTA4H
T1 sequence (P09960 1-611): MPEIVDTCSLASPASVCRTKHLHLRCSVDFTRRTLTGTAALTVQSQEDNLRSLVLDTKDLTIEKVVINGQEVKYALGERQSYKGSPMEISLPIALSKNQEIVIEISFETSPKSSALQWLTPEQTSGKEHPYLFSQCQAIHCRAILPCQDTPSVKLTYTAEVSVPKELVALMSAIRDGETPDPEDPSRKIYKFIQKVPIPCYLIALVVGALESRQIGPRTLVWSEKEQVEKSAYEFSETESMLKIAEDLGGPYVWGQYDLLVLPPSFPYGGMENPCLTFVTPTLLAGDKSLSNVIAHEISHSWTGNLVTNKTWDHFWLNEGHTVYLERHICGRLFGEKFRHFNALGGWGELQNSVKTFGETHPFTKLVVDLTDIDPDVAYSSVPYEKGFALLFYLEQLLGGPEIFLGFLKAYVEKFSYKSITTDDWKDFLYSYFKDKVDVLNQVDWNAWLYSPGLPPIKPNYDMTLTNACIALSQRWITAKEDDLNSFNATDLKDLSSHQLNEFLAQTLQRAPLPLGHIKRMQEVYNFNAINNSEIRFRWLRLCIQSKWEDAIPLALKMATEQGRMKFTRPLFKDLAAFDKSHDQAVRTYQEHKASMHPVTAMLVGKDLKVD
Procedure: NDS100178 series of compound primarily activates imidazoline receptor […]. In high glucose condition this activation leads to formation of Diacylglycerol (DAG). DAG subsequently generates Arachidonic Acids (AA) in the cell. Metabolites of AA especially epoxyeicosatrienenoic acids (EETs) and hydroxyeicosatetrenoic acids (HETEs) induce exocytosis leading to increased secretion of insulin from the cells. The other major signalling pathway that can alter the glucose/DAG induced AA pool is the leukotriene pathway, that, by metabolizing AA into different leukotrienes and not EET and HETE can suppress its insulin secretion effect. Molecules that can inhibit metabolism of AA through leukotriene pathway can maintain AA pool leading to its metabolism only through EETs and HETEs and thus can enhance increase insulin secretion. One of the major enzymes in leukotriene pathway is LTA4H hydrolase that converts LTA4 into LTB4, a AA derivative that suppresses insulin secretion. A novel finding that inhibiting LTA4H can enhance insulin secretion has been established by the inventors. NDS100178 inhibits LTA4H (IC50<500 nM) while the IC50 against LTA4H target of compound 6 from patent US20040009976 Compound: 5-Chloro-2-methyl-3-(4,5-dihydro-1-H-imidazol-2-yl)-1H-indole) is above 10 uM.

[2] = test system: MIN6 cells; test: Insulinotropic activity: insulin secretion from MIN6 cells (ELISA based assay); format: cell-based, mouse; details: for Insulin Secretion: standard error in bracket
Procedure: Insulinotropic activity of the NDS100178 and NDS100179 was measured by a well-optimized ELISA based Assay (Shantani Protocol #5205) described below.
Materials • MIN6Cell (source: National Center for Cell Sciences, Pune) • Mouse Insulin ELISA kit (Mercodia, 10-1247-01) • Plate Shaker (MixMatefromEppendorf) • HEPES Balanced Krebs-Ringer bicarbonate buffer (components as follows)
Method • i. Seed proliferating culture of MIN-6 cells into a 6 well plate with almost half the confluency two days before the experiment. • ii. One the day of Insulin induction experiment, the cells should become almost confluent and are in good condition. • iii. On the day of experiment, first prepare 1×KRB-HEPES buffer with 0.1% BSA (for rinse) and without BSA (for equilibration and insulin induction) as described in the materials. • iv. Prepare equilibration buffer: 1×KRB-HEPES buffer without BSA containing 3.3 mM glucose (to bring down the glucose level of all cells to the same level). For example, add 66 ul 1 M glucose stock solution to 20 ml KRB-HEPES buffer without BSA. • v. Prepare the stimulating buffer (insulin induction): 1×KRB-HEPES buffer without BSA containing the defined glucose level (in most cases, it will be 16.7 mM glucose) and the desired concentration of molecule. • vi. Pre warm all the buffers to 37° C. in the water bath (at 15 minutes). • vii. Remove media from all wells, rinse each well twice with 2 ml KRB-HEPES buffer containing 0.1% BSA. • viii. Add 2 ml of equilibration buffer in each well and incubate at 37° C. for half an hour. • ix. After the incubation add 2 ml of stimulating buffer in respective wells (properly labelled) and incubate 37° C. for 1 hour. • x. In the meanwhile, turn on the refrigerated centrifuge and set the temperature to 4° C. Take out enzyme conjugate, diluent buffer, Calibrator 0 and stripes needed (for example, two stripes for 8 samples to be run in duplicate) from Mercodia ELISA kit box (store at 4° C.) and warm up them to RT. • xi. […] Centrifuge the tubes at 600 g for 5 min. • xiii. Take out 500 ul in fresh properly labelled precooled tubes. • xiv. Now dilute the samples 1:30 in calibrator 0 i.e. add 3 ul of each sample to 87 ul of Calibrator 0 in 8 different properly labelled 0.5 ml tubes. Mix them well. • xv. Prepare 1× enzyme conjugate buffer, i.e. mix 180 ul enzyme (11×) with 1800 ul diluent buffer for ELISA of two stripes. • xvi. Add 10 ul of each sample (diluted, in duplicate) in the two adjacent wells. Be careful not to touch the bottom. • xvii. Carefully add 100 ul of Enzyme Conjugate buffer (1×) to each well and incubate on a plate shaker (eppendorf MixMate) at 800 rpm for 2 hours at 25° C. • xviii. 45 min before the incubation is over take out wash buffer, substrate TMB and Stop solution. Keep them at RT. • xix. 5 min before the incubation is over prepare 1× wash buffer (21×), i.e. 40 ml distilled water+2 ml (21×) wash buffer in a reservoir. • xx. After the incubation is over, wash each well 7 times with 350 ul wash buffer. Use a multichannel (175 ul). • xxi. After the washing add 200 uL substrate TMB solution in each well. Maintain a proper pace. • xxii. Allow to incubate for 15 min. Set the program on the plate reader, to take absorbance read at 450 nm. Add a 5 sec shake step to allow proper mixing. • xxiii. After incubation immediately add 50 ul Stop solution in each well at same pace and take absorbance read at 450 nm.
Assay conditions were kept same in all the assays. The difference in absorption-value for control experiment (no treatment with molecule) over different days is attributed to cell culture conditions. Other varying conditions are specified in the respective graphs.
[Note: If not mentioned specifically, HG=High Glucose (16.7 mM), LG=Low Glucose (3.3 mM)]

[3] = Metabolic study in HLM; format: in vitro ADME
[4] = target: CYP3A4 (Homo sapiens, UniProt P08684); test: CYP3A4 inhibition; format: in vitro ADME
CYP3A4, sequence (P08684 whole entry): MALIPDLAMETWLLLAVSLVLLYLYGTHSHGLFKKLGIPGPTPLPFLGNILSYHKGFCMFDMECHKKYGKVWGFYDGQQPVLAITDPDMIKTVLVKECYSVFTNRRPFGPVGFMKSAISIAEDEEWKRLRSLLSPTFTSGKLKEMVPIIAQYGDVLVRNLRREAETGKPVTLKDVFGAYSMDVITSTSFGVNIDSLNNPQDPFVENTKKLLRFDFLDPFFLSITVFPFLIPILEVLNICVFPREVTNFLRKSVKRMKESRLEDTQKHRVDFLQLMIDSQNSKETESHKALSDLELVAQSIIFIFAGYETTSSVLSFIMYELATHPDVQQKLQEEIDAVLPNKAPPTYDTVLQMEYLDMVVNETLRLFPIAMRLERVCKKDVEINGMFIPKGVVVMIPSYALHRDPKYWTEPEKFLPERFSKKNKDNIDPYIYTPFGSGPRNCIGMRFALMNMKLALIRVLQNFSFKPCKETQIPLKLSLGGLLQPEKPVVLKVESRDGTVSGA

[5] = Kinetic solubility; format: physicochemical; details: kinetic from dmso stock
[6] = Metabolic study and intrinsic clearance in MLM; format: in vitro ADME

Clc1ccc2[nH]nc(C3=NCCN3)c2c1 [NDS100178, 5-Chloro-3-(4,5-dihydro-1H-imidazol-2-yl)-1H-indazole]
IC50 [1]: < 0.5 µM
insulin secretion from MIN6 cells in high glucose conditions ([2]; 33 uM, 1 hour, high glucose (16.7 mM), three different days): significant increase in the insulin secretion
insulin secretion over control ([2]; MIN6 cells, 10 nM): No significant difference over the control
insulin secretion over control ([2]; MIN6 cells, 50 nM): No significant difference over the control
increase in insulin secretion ([2]; MIN6 cells, 100 nM): more than 100%
Insulin Secretion ([2]; MIN6 cells, compound 0.1 μM): 8.91 (1.6) ng/ml
Insulin Secretion ([2]; MIN6 cells, compound 1.0 μM): 12.49 (1.9) ng/ml
Insulin Secretion ([2]; MIN6 cells, compound 10.0 μM): 35.09 (4.0) ng/ml
glucose dependence of insulinotropic activity ([2]; MIN6 cells, high glucose vs lower glucose conditions): glucose dependent
Metabolic Study HLM Mean % PCR* [3]: 79.70%
CYP3A4 Inhibition [4]: No inhibition
solubility kinetic [5]: 214 µM (≈ 47.3 µg/mL)
Intrinsic Clearnace MLM [6]: 80.8 μl/min/mg of protein
Metabolic Study MLM Mean % PCR* [6]: 38.84%
melting point: 248 to 249 °C

Cc1[nH]c2ccc(Cl)cc2c1C1=NCCN1 [Example-6 of Patent US20040009976, 5-Chloro-2-methyl-3-(4,5-dihydro-1-H-imidazol-2-yl)-1H-indole, reference compound]
IC50 [1]: > 10 µM
Insulin Secretion ([2]; MIN6 cells, compound 0.1 μM): 1.39 (0.15) ng/ml
Insulin Secretion ([2]; MIN6 cells, compound 1.0 μM): 3.68 (2.11) ng/ml
Metabolic Study HLM Mean % PCR* [3]: 99.11%
CYP3A4 Inhibition [4]: No inhibition
solubility kinetic [5]: 196 µM (≈ 45.9 µg/mL)
Intrinsic Clearnace MLM [6]: 21.3 μl/min/mg of protein
Metabolic Study MLM Mean % PCR* [6]: 64.83%
